According to paper PMC6760264 (Journal of medicinal chemistry, 2019):

Target: T1, NTMT1 (Homo sapiens, UniProt Q9BV86)
T1 sequence (Q9BV86 1-223): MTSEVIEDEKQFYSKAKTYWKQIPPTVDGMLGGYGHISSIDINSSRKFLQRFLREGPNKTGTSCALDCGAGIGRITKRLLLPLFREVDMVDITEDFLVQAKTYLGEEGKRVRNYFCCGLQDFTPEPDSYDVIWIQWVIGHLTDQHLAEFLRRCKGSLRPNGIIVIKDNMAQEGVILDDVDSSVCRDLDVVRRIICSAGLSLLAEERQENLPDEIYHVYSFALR
Experiment: SAHH-coupled fluorescence assay of NTMT1 inhibition
Assay type: biochemical
Conditions: at 10 μM

## Nc1ncnc2c1ncn2[C@@H]1O[C@H](CN(CCCN2CCC[C@H]2C(=O)O)CC[C@H](N)C(=O)O)[C@@H](O)[C@H]1O [Compound 14, (3-(((S)-3-Amino-3-carboxypropyl)(((2R,3S,4R,5S)-5-(6-amino-9H-purin-9-yl)-3,4-dihydroxytetrahydrofuran-2-yl)-methyl)amino)propyl)-l-proline]
  inhibition against NTMT1: did not show any significant inhibition
